Data set [1] addresses T1, YciM (Salmonella enterica, UniProt Q7CQG6).
T1 sequence (Q7CQG6 23-389): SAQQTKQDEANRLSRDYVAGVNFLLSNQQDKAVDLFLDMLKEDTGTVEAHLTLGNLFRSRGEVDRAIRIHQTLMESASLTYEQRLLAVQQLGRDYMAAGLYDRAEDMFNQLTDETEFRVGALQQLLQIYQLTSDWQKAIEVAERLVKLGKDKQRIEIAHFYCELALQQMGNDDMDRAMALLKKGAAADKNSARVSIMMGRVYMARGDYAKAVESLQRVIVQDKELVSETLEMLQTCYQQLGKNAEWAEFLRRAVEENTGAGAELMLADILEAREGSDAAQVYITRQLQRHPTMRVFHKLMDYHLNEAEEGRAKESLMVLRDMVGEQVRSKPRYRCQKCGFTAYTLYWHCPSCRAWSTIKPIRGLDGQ
The data set is described as follows: isothermal titration calorimetry, single-site fit. Format: binding.

Data set [2] concerns the molecule itself. The data set is described as follows: crystal structure.

`CCCCCCCCCCCC(O)CC(=O)O` (centres unmarked) [3-hydroxymyristic acid] came in with a Kd in data set [1] of 1.25 ± 0.88 µM.

B1: YciM cytoplasmic domain of S. typhimurium (domain or fragment, UniProt A0A0F6B1Z6 136-389, looked up)
chain: ETEFRVGALQQLLQIYQLTSDWQKAIEVAERLVKLGKDKQRIEIAHFYCELALQQMGNDDMDRAMALLKKGAAADKNSARVSIMMGRVYMARGDYAKAVESLQRVIVQDKELVSETLEMLQTCYQQLGKNAEWAEFLRRAVEENTGAGAELMLADILEAREGSDAAQVYITRQLQRHPTMRVFHKLMDYHLNEAEEGRAKESLMVLRDMVGEQVRSKPRYRCQKCGFTAYTLYWHCPSCRAWSTIKPIRGLDGQ
As to B1, the binding result in data set [2] is recorded as “binds”.
